The values that follow come from paper PMC12298827, “Subchronic Toxicities of Four Per- and Polyfluoroalkyl Substances (PFASs) by Oral Exposure in Sprague–Dawley Rats” (Toxics, 2025).

The nature of data set [1]: Stability of dosing formulations in corn oil. Format: physicochemical. An excerpt: (§1) Based on solubility, corn oil (Welsh, Holme & Clark Inc., Newark, NJ, USA) was used as the vehicle for all four PFASs. Gas chromatography (GC) with flame ionization detection (FID) was used for the analysis of the PFNAC, PFHI, and MHFPK formulations, and a high-performance liquid chromatography (HPLC) method with ultraviolet spectroscopy was used for the CTFPA formulation. The details of the dosing solution analytical conditions are summarized in supplemental Tables S1 and S2. These analytical methods were developed specifically for these subchronic toxicity studies. […] Dosing solutions were prepared and replaced between at least every 29 days and no more than every 39 days.
(§2) PFNAC, PFHI, and MHFPK were soluble in corn oil up to 67, 200, and 100 mg/mL, respectively. As solubility in aqueous vehicles was 40 mg/mL or less for all three chemicals, corn oil was chosen as the vehicle. PFNAC was stable at the ambient temperature for 51 days at target concentrations of 0.2 and 10 mg/mL PFHI was stable in corn oil at ambient temperatures and target concentrations of 1 and 80 mg/mL for up to 70 days. MFHPK was stable in corn oil at room temperature for up to 44 days at target concentrations of 5 and 100 mg/mL. CTFPA was soluble in both deionized (DI) water and corn oil at 200 mg/mL when stored refrigerated overnight. […] Thus, corn oil was chosen as the vehicle for CTFPA. The stability of the CTFPA in the corn oil was evaluated for 8, 13, 15, 23, 35, and 42 days stored refrigerated in plastic bottles. CTFPA at 40 mg/mL was stable for up to 42 days. CTFPA at 0.6 mg/mL was stable for up to […] when refrigerated in plastic bottles but by 42 days had decreased to approximately 81%.

Data set [2] in a line: Parent chemical in rat plasma, 14-day study. Format: in vivo. To be noted: for concentration at 15 day: Sprague-Dawley, rat, plasma, oral; for Percentage of the dose in the plasma: 14 days. The procedure:
(§3) Dose-range-finding (14-day) studies were conducted using male and female rats to establish dose levels for 90-day studies and identify potential target organ toxicities. Male and female rats (n = 5 sex/group, a control and three dose groups, corn oil vehicle dose volume of 5 mL/kg) were administered PFASs by oral gavage daily for 14 days and euthanized on study day (SD) 15. The dose levels for PFHI, CTFPA, and MHFPK were 0, 30, 100, and 300 mg/kg-day. The dose levels for PFNAC were 0, 10, 30, and 100 mg/kg-day. The in vivo data collected included BW, BWCs, FC, cage-side observations, and physical exams. Gross necropsies, relative and absolute organ weights, and clinical chemistry data were collected for all the groups. Macroscopic and microscopic pathology examinations were conducted for the control and high-dose groups initially; the other groups were examined if justified by experimental findings. Plasma samples were analyzed ~2 h post dosing on day 1 and at day 15 for the parent PFAS chemical.
On SD 1 of the 14-day study (~2 h post dosing), 0.2 mL of blood was collected via tail vein puncture in tubes containing K3EDTA and stored on wet ice. Prior to the scheduled euthanasia, blood (~1 mL) was collected from the jugular vein in tubes containing K3EDTA and stored on wet ice on SD 15, for the 14-day study, and SD 91, for the 90-day study. All the tubes were centrifuged at an ~1500 relative centrifugal force within 1 h of collection for 15 min at 5 ± 3 °C. The plasma was stored at −75 ± 15 °C until the analysis. PFNAC and PFHI were analyzed using a headspace GC–mass spectrometry (MS) method, as summarized in Table S3, and CTFPA was analyzed using an ultra-HPLC-MS method, as summarized in Table S4. The MHFPK samples were not analyzed because a method suitable for plasma was not available. The details concerning the preparation of the samples, method blanks, and matrix and QC standards for the analysis are available in the appendices to the study reports.

Data set [3] in a line: Solubility in dosing vehicles. Type of data set: physicochemical.
Description: as §1, §2

A further data set deals with male and female SD rats. The experiment in a line: 14-day dose-range-finding oral gavage study. Type of data set: in vivo, rat. As to conditions: both sexes, all doses. How it is done: as §3
Neurotoxicity was evaluated using the functional observational battery (FOB) and measuring locomotor activity (LMA) 2–4 h post dosing on SDs 78–80 and 80–84, respectively. For both the 14- and 90-day studies, an ophthalmologic examination was conducted prior to randomization and near the end of the study, using indirect ophthalmoscopy and slit–lamp biomicroscopy (as needed) after the administration of a mydriatic solution.
Hematology, biochemistry, and coagulation endpoints were measured at the termination of the study. A Siemens Advia 2120i hematology analyzer (Siemens Healthineers, Erlangen, Germany) was used to measure (or calculate) the parameters related to the complete blood count, leukocyte differential count, and reticulocyte count. The hematology parameters are listed and described in Table 2. The prothrombin time […] and activated partial thromboplastin time (APTT) were measured using an Instrumentation Laboratory (Bedford, MA, USA) ACL Elite Pro coagulation analyzer (laser–nephelometric centrifugal method).
At necropsy, the rats were visually examined for external abnormalities and organ weights (absolute and relative to the BW and brain weight), which were recorded (paired organs weighed together). The tissues were preserved in 10% neutral buffered formalin (NBF), except for the ocular tissues, testes, and epididymides, which were preserved in modified Davidson’s fixative and later transferred to 10% NBF. Bone marrow smears were prepared from the femurs, and the slides were air-dried, fixed in methanol, stained, and stored at room temperature for possible future evaluation. The preserved tissues were embedded in paraffin, sectioned, stained with hematoxylin and eosin, and examined by a board-certified veterinary pathologist.

Setting [4] is: male, Day 1 (2 hours post dosing), 30 mg/kg-day.
[5] abbreviates: male, Day 1 (2 hours post dosing), 100 mg/kg-day.
The mark [6] stands for this setting: male, Day 1 (2 hours post dosing), 300 mg/kg-day.
The mark [7] stands for this setting: corn oil, oil or lipid, read-out: Solubility in corn oil.

What is called solubility is how much of the substance goes into solution per volume.

Each structure is given as a SMILES string. In brackets after ≈: the same amount, converted by molar mass. Where two headings read alike, the source gives them in different places.

As for `O=C(O)C(F)(Cl)C(F)(F)F` (stereo not shown) [CTFPA, 2-Chloro-2,3,3,3-tetrafluoropropanoic acid], the “Concentration remaining in corn oil” value in data set [1] (0.6 mg/mL, by 42 days, refrigerated) is given as “approximately 81%”. Also, the “Stable in corn oil for” value was “up to 22 days” in data set [1] (0.6 mg/mL, refrigerated in plastic bottles) and “up to 42 days” in data set [1] (40 mg/mL, refrigerated in plastic bottles). Besides, the concentration at 15 day was 27200 ng/mL in data set [2] (female, Day 15, 30 mg/kg-day); 45400 ng/mL in data set [2] (female, Day 15, 100 mg/kg-day); 123000 ng/mL in data set [2] (female, Day 15, 300 mg/kg-day); 49800 ng/mL in data set [2] (male, Day 15, 30 mg/kg-day); 99100 ng/mL in data set [2] (male, Day 15, 100 mg/kg-day); 120000 ng/mL in data set [2] (male, Day 15, 300 mg/kg-day). Besides, the “Percentage of the dose in the plasma” value is given as 1.75 ± 0.67% in data set [2] (female, 100 mg/kg-day) and 6.39 ± 2.03% in data set [2] (male, 30 mg/kg-day). For the same compound, the “Parent chemical in plasma” value in data set [2] (female, Day 1, 30 mg/kg-day) is on record as 46,700 ± 10,000 ng/mL; in data set [2] (female, Day 1, 100 mg/kg-day), 107,000 ± 30,400 ng/mL; in data set [2] (female, Day 1, 300 mg/kg-day), 297,000 ± 56,500 ng/mL; in data set [2] (setting [4]), 48,400 ± 8430 ng/mL; in data set [2] (setting [5]) it was 122,000 ± 43,800 ng/mL; in data set [2] (setting [6]) it was 321,000 ± 60,600 ng/mL. Besides, the “pH of the DI water solution” value in data set [3] (DI water solution) was below 1. For the same compound, the solubility in data set [3] (corn oil, stored refrigerated overnight, read-out: Solubility in corn oil) was 200 mg/mL (≈ 1110 mM); in data set [3] (deionized water, stored refrigerated overnight, read-out: Solubility in deionized (DI) water), 200 mg/mL (≈ 1110 mM). Further, the “Bodyweight and bodyweight gain” value with male and female SD rats is reported as “No changes”. Besides, the Clinical chemistry result in the data set with male and female SD rats is “Females: mild increases in albumin, A/G ratio and mild sporadic decreases in globulin and minimal increases in the total protein; males: minimal increases in calcium and from minimal to mild increases in BUN at all the dose levels. At 300 mg/kg-day, mild increases in ALPi”. Moreover, in the data set with male and female SD rats, the Clinical observations entry is reported as “None”. The Coagulation endpoints result with male and female SD rats was “No effects”. Also, the Feed consumption result in the data set on male and female SD rats is recorded as “No effects”. For the same compound, in the data set with male and female SD rats, the Gross lesions result is “None”. For the same compound, the Hematology result with male and female SD rats is listed as “Mild increases in MPV in males at all the doses, not seen in females”. Moreover, the Histopathology entry with male and female SD rats was “From minimal to moderate diffuse hepatocellular hypertrophy seen in the livers of males at ≥30 mg/kg-day (5/5 in all the groups, with severity increasing with dose) and females at ≥100 mg/kg-day (5/5 with, severity increasing with dose)”. For the same compound, the Morbidity and mortality result with male and female SD rats is reported as “None”. Also, in the data set on male and female SD rats, the Ophthalmology result is “No ocular lesions”. Also, the Organ weight changes entry in the data set with male and female SD rats is recorded as “Females: liver at >100 mg/kg-day; males: liver, dose-dependent pattern in all the dose groups”.

Take `FC(F)(F)C(F)(F)C(F)(F)C(F)(F)CCI` [PFHI, 1H,1H,2H,2H-Perfluorohexyl iodide]: the “Stable in corn oil for” value in data set [1] (ambient temperatures, 1 and 80 mg/mL) is listed as “up to 70 days”. For the same compound, the “Lower plasma concentration for SD 15 compared to SD 1” value in data set [2] (14-day study) was 10- to 100 fold. Further, in data set [2] (female, Day 15, 300 mg/kg-day), the concentration at 15 day was 14.3 ± 7.12 ng/mL. The concentration at 15 day in data set [2] (male, Day 15, 100 mg/kg-day) worked out at 4.87 ± 1.93 ng/mL. Moreover, the concentration at 15 day in data set [2] (male, Day 15, 300 mg/kg-day) amounted to 26.7 ± 8.79 ng/mL. In addition, the “Parent chemical in plasma” value in data set [2] (female, Day 1, 30 mg/kg-day) is listed as 14.7 ± 8.21 ng/mL. Also, the “Parent chemical in plasma” value in data set [2] (female, Day 1, 100 mg/kg-day) is on record as 470 ± 427 ng/mL. The “Parent chemical in plasma” value in data set [2] (female, Day 1, 300 mg/kg-day) came out at 1070 ± 689 ng/mL. For the same compound, the “Parent chemical in plasma” value in data set [2] (female, Day 15, 30 mg/kg-day) is recorded as “ND/BLOD”. Besides, the “Parent chemical in plasma” value in data set [2] (female, Day 15, 100 mg/kg-day) is listed as “≤LOQ”. Also, in data set [2] (setting [4]), the “Parent chemical in plasma” value is listed as 159 ± 79.3 ng/mL. Further, the “Parent chemical in plasma” value in data set [2] (setting [5]) was 333 ± 147 ng/mL. For the same compound, the “Parent chemical in plasma” value in data set [2] (setting [6]) stood at 2040 ± 1250 ng/mL. In addition, the “Parent chemical in plasma” value in data set [2] (male, Day 15, 30 mg/kg-day) is reported as “<BLOD/≤LOQ”. Moreover, the solubility in data set [3] (setting [7]) was at most 200 mg/mL. Moreover, in the data set on male and female SD rats, the “Bodyweight and bodyweight gain” value is recorded as “No changes”; the Clinical chemistry result is “Mild increases in cholesterol levels in both sexes at 300 mg/kg-day and mild increases in glucose in males only at ≥100 mg/kg-day; from minimal to moderate increases in phosphorus in both sexes in all the dose groups”; the Clinical observations entry is on record as “None”; the Coagulation endpoints entry was “No effects”. Further, in the data set with male and female SD rats, the Feed consumption result is recorded as “Females: dose-dependent increase, not correlated with bodyweight changes; Males: no effects”; the Gross lesions entry is on record as “None”; the Hematology entry was “Decreased red cell mass at 300 mg/kg-day in females and all the dose levels in males; minimal increases in absolute reticulocyte concentrations and from minimal to mild increases in MPV in both sexes at all the dose levels”; the Histopathology entry is “Mild liver hypertrophy in 4/5 males at 300 mg/kg-day and in 1/5 at 100 mg/kg-day; none in females”. Further, in the data set with male and female SD rats, the Morbidity and mortality result is “None”; the Ophthalmology entry is given as “No ocular lesions”; the Organ weight changes result is “Increases in absolute and relative liver weights in males at 300 mg/kg-day and increases in liver weight/bodyweight ratio at ≥100 mg/kg-day; no changes in females”.

Turning to `CC(=O)C(F)(F)C(F)(F)C(F)(F)F` [MHFPK, Methyl heptafluoropropyl ketone], in data set [1] (room temperature, 5 and 100 mg/mL), the “Stable in corn oil for” value was “up to 44 days”. The solubility in data set [3] (setting [7]) was at most 100 mg/mL. In the data set with male and female SD rats, the “Bodyweight and bodyweight gain” value was “No changes”; the Clinical chemistry entry is “Minimal increases in BUN and creatinine at 300 mg/kg-day for males; increased creatinine in females at ≥100 mg/kg-day”; the Clinical observations entry is “None”; the Coagulation endpoints entry is given as “No effects”. For the same compound, in the data set on male and female SD rats, the Feed consumption result is listed as “No effects”, the Gross lesions result was “None”, the Hematology entry is “No effects considered as chemical related” and the Histopathology result is “No test-substance-related changes”. Also, in the data set with male and female SD rats, the Morbidity and mortality entry is “None”; the Ophthalmology result is listed as “No ocular lesions”; the Organ weight changes entry is reported as “No test-substance-related changes”.
